# Source: ChEMBL document CHEMBL4261488, “Do GluN2B subunit containing NMDA receptors tolerate a fluorine atom in the phenylalkyl side chain?” (Medchemcomm, 2017)
# Columns and labels:
# [1] = target: Glutamate receptor ionotropic, NMDA 2B (Homo sapiens, UniProt Q13224); experiment: Displacement of [3H]-ifenprodil from GluN2B receptor (unknown origin) expressed in mouse L (tk-) cell membranes after 120 mins by scintillation counting method
# [2] = Displacement of [3H]-di-o-tolylguanidine from sigma 2 receptor in rat liver membranes after 120 mins by scintillation counting analysis; type: cell membranes, Membrane
# Sus scrofa = organism: Sus scrofa; experiment: Displacement of [3H]-(+)-MK-801 from PCP binding site of NMDA receptor in pig brain cortex membranes at 1 uM after 90 mins by scintillation counting method relative to control; type: cell membranes
# [3] = target: Sigma non-opioid intracellular receptor 1 (Cavia porcellus, UniProt Q60492); type: cell membranes, Brain, Membrane
# Chain of Sigma non-opioid intracellular receptor 1 (Q60492 whole entry): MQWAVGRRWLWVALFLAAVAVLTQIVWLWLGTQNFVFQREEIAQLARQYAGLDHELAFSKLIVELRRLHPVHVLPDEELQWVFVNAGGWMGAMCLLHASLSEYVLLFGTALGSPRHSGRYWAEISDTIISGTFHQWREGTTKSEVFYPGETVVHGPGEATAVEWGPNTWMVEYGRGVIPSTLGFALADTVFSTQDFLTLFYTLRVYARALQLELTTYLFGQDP
# Chain of Glutamate receptor ionotropic, NMDA 2B (Q13224 whole entry): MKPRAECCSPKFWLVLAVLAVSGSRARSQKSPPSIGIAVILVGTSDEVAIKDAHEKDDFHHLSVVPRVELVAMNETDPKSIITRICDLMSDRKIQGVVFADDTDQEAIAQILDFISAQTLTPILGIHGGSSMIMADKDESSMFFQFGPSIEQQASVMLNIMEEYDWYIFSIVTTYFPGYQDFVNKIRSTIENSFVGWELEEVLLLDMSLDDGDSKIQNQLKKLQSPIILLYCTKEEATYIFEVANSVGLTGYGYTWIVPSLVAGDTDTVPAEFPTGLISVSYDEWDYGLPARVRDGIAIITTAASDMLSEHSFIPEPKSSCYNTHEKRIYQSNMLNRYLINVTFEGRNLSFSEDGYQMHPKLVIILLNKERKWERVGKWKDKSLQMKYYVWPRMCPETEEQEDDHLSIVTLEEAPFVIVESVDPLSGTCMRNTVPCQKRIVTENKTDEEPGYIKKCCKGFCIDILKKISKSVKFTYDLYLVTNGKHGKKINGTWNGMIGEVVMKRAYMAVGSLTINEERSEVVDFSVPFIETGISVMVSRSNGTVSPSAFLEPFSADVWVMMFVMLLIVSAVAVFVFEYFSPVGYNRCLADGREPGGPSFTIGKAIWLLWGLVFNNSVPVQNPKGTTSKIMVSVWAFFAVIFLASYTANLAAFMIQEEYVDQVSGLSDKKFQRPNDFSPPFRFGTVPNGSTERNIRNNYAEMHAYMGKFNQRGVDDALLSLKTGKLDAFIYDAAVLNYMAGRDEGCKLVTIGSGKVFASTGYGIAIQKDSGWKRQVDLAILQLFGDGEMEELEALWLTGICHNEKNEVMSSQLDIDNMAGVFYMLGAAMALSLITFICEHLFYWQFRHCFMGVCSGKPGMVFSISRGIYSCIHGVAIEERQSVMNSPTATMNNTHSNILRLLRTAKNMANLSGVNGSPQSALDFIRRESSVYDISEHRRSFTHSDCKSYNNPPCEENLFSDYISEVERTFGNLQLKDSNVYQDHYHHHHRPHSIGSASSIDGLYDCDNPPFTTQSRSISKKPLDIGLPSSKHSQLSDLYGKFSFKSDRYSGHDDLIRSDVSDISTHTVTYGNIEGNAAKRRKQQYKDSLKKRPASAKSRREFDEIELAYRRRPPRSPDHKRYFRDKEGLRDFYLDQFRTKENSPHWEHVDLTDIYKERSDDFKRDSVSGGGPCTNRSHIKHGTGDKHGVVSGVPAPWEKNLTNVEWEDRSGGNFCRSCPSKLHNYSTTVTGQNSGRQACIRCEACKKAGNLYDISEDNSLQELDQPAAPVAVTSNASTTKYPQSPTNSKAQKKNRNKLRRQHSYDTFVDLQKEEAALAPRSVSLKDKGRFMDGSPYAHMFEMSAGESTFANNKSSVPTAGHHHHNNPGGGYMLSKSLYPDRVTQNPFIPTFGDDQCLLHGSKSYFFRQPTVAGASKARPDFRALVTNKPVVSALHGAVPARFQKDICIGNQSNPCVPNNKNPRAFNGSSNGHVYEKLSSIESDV
SMILES,Ki [1],Ki [2],inhibition (Sus scrofa),Ki [3]
COc1ccc2c(c1)CCC(NCCCc1ccccc1)CC2 (stereo not given),11 nM,–,–,–
FC(CCc1ccccc1)CNC1CCc2ccccc2CC1 (stereo not given),27 nM,19 nM,3%,82 nM
COc1ccc2c(c1)CC[C@H](NCCCc1ccccc1)C[C@@H]2O (relative stereo),16 nM,–,–,–
FC(CNC1CCc2ccccc2CC1)Cc1ccccc1 (stereo not given),17 nM,14 nM,2%,54 nM
